Data reported in ChEMBL document CHEMBL3797079, “Synergistic reduction of HIV-1 infectivity by 5-azacytidine and inhibitors of ribonucleotide reductase” (Bioorg Med Chem, 2016).
The source made the active and inactive calls. No cut-off for these calls is given here.

Legend:
[1] = system: Human immunodeficiency virus 1; assay: Antiviral activity against VSV-G pseudotyped HIV-1 NL4-3 infected in human U373-MAGI cells assessed as Gag mutation at 50 uM incubated for 4 hrs prior to infection measured at 72 hrs post infection by illumina sequencing method (reference value: 18.4%); assay type: functional
[2] = system: Human immunodeficiency virus 1; assay: Antiviral activity against VSV-G pseudotyped HIV-1 NL4-3 infected in human U373-MAGI cells assessed as increase in frequency of G to C transversion at 50 uM incubated for 4 hrs prior to infection measured at 72 hrs post infection by illumina sequencing method relative to control; assay type: functional
[3] = system: Human immunodeficiency virus 1; assay: Potentiation of 5-Aza-C-induced antiviral activity against VSV-G pseudotyped HIV-1 NL4-3 infected in human U373-MAGI cells assessed as decrease in 5-Aza-C EC50 at 50 uM preincubated for 2 hrs followed by 5-Aza-C addition for 2 hrs and subsequent viral infection measured at 72 hrs post infection by flow cytometric analysis relative to control; assay type: functional
[4] = system: Human immunodeficiency virus 1; assay: Potentiation of 5-Aza-dC-induced antiviral activity against VSV-G pseudotyped HIV-1 NL4-3 infected in human U373-MAGI cells assessed as increase in total mutation frequency at 50 uM incubated for 4 hrs preinfection followed by 5-Aza-C addition for 2 hrs preinfection and subsequent viral infection measured at 72 hrs post infection by illumina sequencing method relative to control; assay type: functional, organism-based
U373-MAGI [5] = assay: Reduction in dATP level in human U373-MAGI cells at 200 uM after 6 hrs by LC-MS/MS analysis; assay type: functional, cell-based
U373-MAGI [6] = assay: Increase in 5-aza-dCTP/dCTP ratio in human U373-MAGI cells at 200 uM preincubated for 2 hrs followed by 5-aza-dC addition measured after 4 hrs by LC-MS/MS analysis relative to 5-aza-dC; assay type: functional, cell-based
U373-MAGI [7] = assay: Reduction in dGTP level in human U373-MAGI cells at 50 uM after 6 hrs by LC-MS/MS analysis; assay type: functional, cell-based
[8] = system: Human immunodeficiency virus 1; assay: Antiviral activity against VSV-G pseudotyped HIV-1 NL4-3 infected in human U373-MAGI cells assessed as Nef mutation at 50 uM incubated for 4 hrs prior to infection measured at 72 hrs post infection by illumina sequencing method (reference value: 22.6%); assay type: functional
U373-MAGI [9] = assay: Effect on dRGU-TP level in human U373-MAGI cells at 200 uM preincubated for 2 hrs followed by 5-aza-dC addition measured after 4 hrs by LC-MS/MS analysis; assay type: functional, cell-based
[10] = system: Human immunodeficiency virus 1; assay: Antiviral activity against VSV-G pseudotyped HIV-1 NL4-3 infected in human U373-MAGI cells assessed as increase in frequency of […] transversion at 50 uM incubated for 4 hrs prior to infection measured at 72 hrs post infection by illumina sequencing method relative to control; assay type: functional
[11] = system: Human immunodeficiency virus 1; assay: Antiviral activity against VSV-G pseudotyped HIV-1 NL4-3 infected in human U373-MAGI cells assessed as reduction in gag level at 50 uM measured at 12 to 72 hrs post infection by qPCR method; assay type: functional, organism-based
[12] = system: Human immunodeficiency virus 1; assay: Potentiation of 5-Aza-C-induced antiviral activity against VSV-G pseudotyped HIV-1 NL4-3 infected in human U373-MAGI cells assessed as Env mutation at 50 uM incubated for 4 hrs preinfection followed by 5-Aza-C addition for 2 hrs preinfection and subsequent viral infection measured at 72 hrs post infection by illumina sequencing method (reference value: 21.4%); assay type: functional
[13] = system: Human immunodeficiency virus 1; assay: Antiviral activity against VSV-G pseudotyped HIV-1 NL4-3 infected in human U373-MAGI cells assessed as reduction in gag level at 50 uM measured at 6 hrs post infection by qPCR method; assay type: functional, organism-based
U373-MAGI [14] = assay: Effect on dRGU-TP level in human U373-MAGI cells at 50 uM preincubated for 2 hrs followed by 5-aza-dC addition measured after 4 hrs by LC-MS/MS analysis; assay type: functional, cell-based
U373-MAGI [15] = assay: Reduction in dCTP level in human U373-MAGI cells at 200 uM after 6 hrs by LC-MS/MS analysis; assay type: functional, cell-based
U373-MAGI [16] = assay: Effect on 5-aza-dCTP level in human U373-MAGI cells at 50 uM preincubated for 2 hrs followed by 5-aza-dC addition measured after 4 hrs by LC-MS/MS analysis; assay type: functional, cell-based
[17] = system: Human immunodeficiency virus 1; assay: Antiviral activity against VSV-G pseudotyped HIV-1 NL4-3 infected in human U373-MAGI cells assessed as increase in frequency of T to A transversion at 50 uM incubated for 4 hrs prior to infection measured at 72 hrs post infection by illumina sequencing method relative to control; assay type: functional
[18] = system: Human immunodeficiency virus 1; assay: Antiviral activity against VSV-G pseudotyped HIV-1 NL4-3 infected in human U373-MAGI cells assessed as increase in frequency of A to T transversion at 50 uM incubated for 4 hrs prior to infection measured at 72 hrs post infection by illumina sequencing method relative to control; assay type: functional
U373-MAGI [19] = assay: Reduction in dTTP level in human U373-MAGI cells at 50 uM after 6 hrs by LC-MS/MS analysis; assay type: functional, cell-based
[20] = system: Human immunodeficiency virus 1; assay: Potentiation of […] antiviral activity against VSV-G pseudotyped HIV-1 NL4-3 infected in human U373-MAGI cells assessed as Env mutation at 50 uM incubated for 4 hrs preinfection followed by 5-Aza-C addition for 2 hrs preinfection and subsequent viral infection measured at 72 hrs post infection by illumina sequencing method (reference value: 21.4%); assay type: functional
[21] = Reduction in dATP level in human U373-MAGI cells at 50 uM after 6 hrs by LC-MS/MS analysis; assay type: functional; design: scale not given: the % may be the effect or the level left
[22] = system: Human immunodeficiency virus 1; assay: Potentiation of 5-Aza-dC-induced antiviral activity against VSV-G pseudotyped HIV-1 NL4-3 infected in human U373-MAGI cells assessed as reduction in gag level at 50 uM after 2 to 72 hrs by qPCR method; assay type: functional, organism-based
[23] = system: Human immunodeficiency virus 1; assay: Antiviral activity against VSV-G pseudotyped HIV-1 NL4-3 infected in human U373-MAGI cells assessed as Env mutation at 50 uM incubated for 4 hrs prior to infection measured at 72 hrs post infection by illumina sequencing method (reference value: 21.4%); assay type: functional
U373-MAGI [24] = assay: Effect on 5-aza-dCTP level in human U373-MAGI cells at 200 uM preincubated for 2 hrs followed by 5-aza-dC addition measured after 4 hrs by LC-MS/MS analysis; assay type: functional, cell-based
[25] = system: Human immunodeficiency virus 1; assay: Potentiation of 5-Aza-C-induced antiviral activity against VSV-G pseudotyped HIV-1 NL4-3 infected in human U373-MAGI cells assessed as reduction in viral infectivity at 50 uM preincubated for 2 to 8 hrs followed by 5-Aza-C addition for 2 hrs and subsequent viral infection measured at 72 hrs post infection by flow cytometric analysis; assay type: functional, organism-based
[26] = system: Human immunodeficiency virus 1; assay: Potentiation of 5-Aza-dC-induced antiviral activity against VSV-G pseudotyped HIV-1 NL4-3 infected in human U373-MAGI cells assessed as Vif mutation at 50 uM incubated for 4 hrs preinfection followed by 5-Aza-C addition for 2 hrs preinfection and subsequent viral infection measured at 72 hrs post infection by illumina sequencing method (reference value: 19.2%); assay type: functional
[27] = system: Human immunodeficiency virus 1; assay: Potentiation of 5-Aza-dC-induced antiviral activity against VSV-G pseudotyped HIV-1 NL4-3 infected in human U373-MAGI cells assessed as reduction in U5-gag level at 50 uM after 2 to 72 hrs by qPCR method; assay type: functional, organism-based

SMILES: Oc1ccc(/C=C/c2cc(O)cc(O)c2)cc1 [RESVERATROL]
- Activity [1]: 16.6%
- fold change (FC) [2]: 2
- fold change (FC) [3]: 2.5
- Activity [4]: inactive
- Activity (U373-MAGI [5]): Active
- Activity (U373-MAGI [6]): Active
- Activity (U373-MAGI [7]): inactive
- Activity [8]: 18.5%
- Activity (U373-MAGI [9]): inactive
- fold change (FC) [10]: 2
- Activity [11]: inactive
- Activity [12]: 22.8%
- Activity [13]: Active
- Activity (U373-MAGI [14]): inactive
- Activity (U373-MAGI [15]): Active
- Activity (U373-MAGI [16]): inactive
- fold change (FC) [17]: 1.8
- fold change (FC) [18]: 1.8
- Activity (U373-MAGI [19]): inactive
- Activity [20]: 20.1%
- Activity [21]: 30%
- Activity [22]: Active
- Activity [23]: 22.5%
- Activity (U373-MAGI [24]): inactive
- Activity [25]: Active
- Activity [26]: 25.1%
- Activity [27]: Active
